Measured values: patent US11840686B2, “Modulation of prekallikrein (PKK) expression” (Ionis Pharmaceuticals, Inc., priority 2013, dated 2023)
Strand notation (5' to 3'): a small letter for the sugar, then the base; units joined by * are phosphorothioate-linked, units joined directly phosphodiester-linked; [ ] holds rarer units or linkages, { } end groups; capitals alone tell only the bases. e = 2'-O-(2-methoxyethyl) (MOE); k = constrained ethyl (cEt); [5mC] = 5-methylcytosine; d = 2'-deoxy (DNA)

Test system: human PKK mRNA
Experiment: Antisense inhibition of human PKK mRNA in HepaRG cells, 1,000 nM, MOE/deoxy/cEt oligonucleotides (Example 3)
Assay type: cell-based
Outline: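 HepaRG cells at 20,000 per well electroporated with 1,000 nM 16-mer MOE/cEt/deoxy gapmers (phosphorothioate, 5-methylcytosine). After about 24 h, PKK mRNA measured by qRT-PCR with primer probe set RTS3454, normalized to RIBOGREEN total RNA. Reported as percent inhibition versus untreated cells.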

[1] = Table 27, HepaRG cells, 1,000 nM antisense oligonucleotide, human PKK mRNA
[2] = HepaRG cells, electroporation with 1,000 nM antisense oligonucleotide, approx. 24 hours, PKK mRNA by RT-PCR (RTS3454), relative to untreated control cells, Table 25 experiment
[3] = HepaRG cells, electroporation with 1,000 nM antisense oligonucleotide, approx. 24 hours, PKK mRNA by RT-PCR (RTS3454), relative to untreated control cells, Table 26 experiment
[4] = PKK mRNA, HepaRG cells, 1,000 nM antisense oligonucleotide, Table 31

Substance: 548352 (antisense eG*eA*kG*dA*dG*dA*dG*dA*dT*dG*dT*dT*d[5mC]*k[5mC]*k[5mC]*eT) [compound 548352]
- % inhibition [1]: 47%

Substance: 548153 (eT*eG*k[5mC]*dT*dG*dA*dA*dA*dG*d[5mC]*dG*dG*dG*k[5mC]*kT*eT; antisense) [compound 548153]
- % inhibition [2]: 44%

Substance: 548296 (eA*e[5mC]*k[5mC]*dA*dA*d[5mC]*dA*dA*d[5mC]*dT*d[5mC]*dA*dG*kG*k[5mC]*e[5mC]; antisense) [compound 548296]
- % inhibition [3]: 34%

Substance: 548192 (e[5mC]*e[5mC]*kT*dG*dT*d[5mC]*dA*dA*d[5mC]*dA*dT*dA*dT*kT*k[5mC]*e[5mC]; antisense) [compound 548192]
- % inhibition [2]: 65%

Substance: 548435 (antisense eA*eA*k[5mC]*dA*dA*dT*dA*dT*d[5mC]*dA*d[5mC]*dT*dG*kT*kA*e[5mC]) [compound 548435]
- % inhibition (Table 30, human PKK mRNA, HepaRG cells, 1,000 nM antisense oligonucleotide): 19%

Substance: 547867 (antisense e[5mC]*e[5mC]*kT*dT*dA*dG*dA*d[5mC]*dA*d[5mC]*dA*dT*dT*kA*kA*eA) [compound 547867]
- % inhibition (Table 20, HepaRG cells, electroporation with 1,000 nM antisense oligonucleotide, approximately 24 hours, PKK mRNA by RT-PCR (RTS3454), relative to untreated control cells): 34%
- % inhibition (Table 22 experiment, HepaRG cells, electroporation with 1,000 nM antisense oligonucleotide, approx. 24 hours, PKK mRNA by RT-PCR (RTS3454), relative to untreated control cells): 53%

Substance: 548261 (antisense eT*eT*k[5mC]*dA*dG*dG*dG*dA*dG*dT*dG*dA*dT*kG*kT*e[5mC]) [compound 548261]
- % inhibition [3]: 36%

Substance: 548006 (e[5mC]*eA*kA*dA*dG*dA*dG*dT*dA*dA*d[5mC]*d[5mC]*dA*kG*kA*eG; antisense) [compound 548006]
- % inhibition (HepaRG cells, electroporation with 1,000 nM antisense oligonucleotide, approximately 24 hours, primer probe set RTS3454, relative to untreated control cells, experiment of Table 24): 54%

Substance: 548358 (antisense eA*eT*kT*dT*dG*dG*dG*d[5mC]*d[5mC]*dT*dA*dG*dT*kG*kG*eT) [compound 548358]
- % inhibition [1]: 0%

Substance: 548554 (antisense eG*eT*kG*d[5mC]*dT*dG*d[5mC]*dA*dT*dT*dG*d[5mC]*dA*kT*kG*eA) [compound 548554]
- % inhibition (HepaRG cells, 1,000 nM antisense oligonucleotide, Table 29): 42%

Substance: 548684 (antisense e[5mC]*eA*kA*dG*dA*d[5mC]*d[5mC]*dT*dT*dG*d[5mC]*dT*dT*kG*k[5mC]*e[5mC]) [compound 548684]
- % inhibition [4]: 24%

Substance: 547964 (antisense eG*eG*kT*dT*d[5mC]*dA*dG*dG*dT*dA*dA*dA*dG*kT*kT*e[5mC]) [compound 547964]
- % inhibition (HepaRG cells, electroporation with 1,000 nM antisense oligonucleotide, approximately 24 hours, primer probe set RTS3454, relative to untreated control cells, experiment of Table 23): 0%

Substance: 547781 (antisense e[5mC]*eA*kA*dT*dT*dG*d[5mC]*dT*dT*d[5mC]*dT*dT*dG*kG*kA*eG) [compound 547781]
- % inhibition (Table 21 experiment, HepaRG cells, electroporation with 1,000 nM antisense oligonucleotide, approx. 24 hours, PKK mRNA by RT-PCR (RTS3454), relative to untreated control cells): 49%

Substance: 548357 (antisense eG*eA*k[5mC]*dG*dA*d[5mC]*dT*dG*d[5mC]*d[5mC]*d[5mC]*dT*dG*kT*kG*e[5mC]) [compound 548357]
- % inhibition [1]: 69%

Substance: 548624 (antisense eT*e[5mC]*kT*dA*dG*dG*dG*d[5mC]*d[5mC]*dA*d[5mC]*dA*d[5mC]*k[5mC]*kT*e[5mC]) [compound 548624]
- % inhibition [4]: 24%
